Earlier results as cited in article PMC3826776 (Bioorganic & medicinal chemistry letters, 2011).
pIC50, pKi: −log10 of the molar value.

Experiments:
mGluR5 [1] = settings: read-out: IC50 (literature values); literature value
[2] = system: brain p-glycoprotein efflux pump (P-gp); settings: stated without reference
mGluR5 [3] = settings: read-out: Ki (literature values); literature value

| pIC50 (mGluR5 [1]) | P-gp substrate [2] | pKi (mGluR5 [3]) | SMILES |
| --- | --- | --- | --- |
| 8.70 | not P-gp substrates | 7.92 | Cc1cccc(C#Cc2ccccc2)n1 [MPEP, 2-methyl-6-(phenylethynyl)-pyridine] |
|  | not P-gp substrates |  | Cc1nc(C#Cc2cccnc2)cs1 [MTEP, 3-[(2-methyl-1,3-thiazol-4yl)-ethynyl]-pyridine] |
